From patent publication US5591741A, “Fungicidal spiroheterocyclic derivatives” (American Cyanamid Company, priority 1993, dated 1997)

Columns and labels:
[1] = test system: Botrytis cinerea; experiment: Direct protectant activity against broad bean grey mould (BCB); type: in vivo; settings: direct protectant foliar spray, 600 ppm, 4 days
Summary of the method: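 Broad bean plants (cv The Sutton, two leaf pairs) sprayed on upper leaf surfaces at 600 ppm, then inoculated 24 h later with 10^6 conidia/ml. Kept 4 days at 22 °C, high humidity; disease control rated from % leaf area with lesions against untreated or diluent controls.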

[2] = test system: Plasmopara viticola; experiment: Antisporulant activity against vine downy mildew (PVA); type: in vivo; settings: vine leaves, antisporulant foliar spray, 600 ppm, 750 l/ha
Summary of the method: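 Cabernet Sauvignon vines (~8 cm) inoculated on lower leaf surfaces with 5×10^4 zoosporangia/ml, held 24 h at 21° C high humidity then 24 h glasshouse. Infected leaves sprayed underside with 600 ppm compound in 1:1 water/acetone, 0.04% Tween 20, 750 l/ha; 96 h glasshouse, 24 h humidity. Sporulating leaf area rated versus control.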

[3] = test system: Erysiphe graminis f.sp. hordei; experiment: Activity against barley powdery mildew, direct therapeutic (EGT); type: in vivo; settings: direct therapeutic foliar spray, 600 ppm, up to 7 days
Summary of the method: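 Barley seedlings (cv. Golden Promise, single-leaf stage) were dusted with mildew conidia one day before a therapeutic foliar spray of 600 ppm compound. Plants were kept at 18 °C and 40% humidity for up to 7 days, and sporulating leaf area was rated against untreated or diluent-sprayed controls.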

[4] = test system: Venturia inaequalis; experiment: Activity against apple scab in-vitro (VII); type: cell-based; settings: 10 ppm, 10 days, 20° C., mycelial growth
Summary of the method: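 Compound in acetone was tested at 10 ppm final in half-strength Potato Dextrose Broth inoculated with V. inaequalis mycelial fragments and spores at 5×10^4 propagules/ml. After 10 days at 20° C, mycelial growth was rated against untreated or diluent controls.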

[5] = test system: Alternaria solani; experiment: Activity against tomato early blight (AS); type: in vivo; settings: Table VI; tomato seedlings, contact prophylactic foliar spray, 4 days
Summary of the method: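 Foliar contact prophylactic spray on tomato seedlings (cv Outdoor Girl, second true leaf expanded) in acetone/water 50:50 with 0.04% Tween 20; 24 h at 20° C, 40% R.H., then inoculation with 10^4 spores/ml A. solani conidia. Kept moist at 21° C; lesion cover rated 4 days post-inoculation against untreated or diluent-sprayed controls.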

[6] = test system: Pseudocercosporella herpotrichoides; experiment: Activity against wheat eyespot in-vitro (PHI); type: cell-based; settings: 10 ppm, 10 days, 20° C., mycelial growth
Summary of the method: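 P. herpotrichoides mycelial fragments (5×10^4/ml) grown in half-strength PDB with compound at 10 ppm final, added from acetone. Incubated 10 days at 20 °C; mycelial growth rated against untreated or diluent controls.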

[7] = test system: Leptosphaeria nodorum; experiment: Activity against wheat leafspot (LN); type: in vivo; settings: direct therapeutic foliar spray, 600 ppm, 6-8 days
Summary of the method: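 Wheat cv Norman at single-leaf stage spray-inoculated with 1.5×10^6 conidia/ml, held 24 h at high humidity, then sprayed therapeutically with test compound at 600 ppm. Kept 6-8 days at 22° C, 70% humidity; lesion density per leaf rated against untreated or diluent-sprayed controls.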

[8] = test system: Phytophthora infestans; type: in vivo; settings: tomato, direct protectant foliar spray
[9] = test system: Erysiphe graminis f.sp. hordei; experiment: Direct protectant activity against barley powdery mildew (EGP); type: in vivo; settings: direct protectant foliar spray, 8 days
Summary of the method: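 Barley seedlings (cv Golden Promise, single-leaf stage) were foliar-sprayed, held 24 h at 18 °C/40% RH, then dusted with mildew conidia. After 8 days at 18 °C/40% RH, sporulating leaf area was scored as a rating against untreated or diluent-sprayed controls.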

[10] = test system: Rhizoctonia solani; experiment: Activity against Rhizoctonia in-vitro (RSI); type: cell-based; settings: 10 ppm, 10 days, 20° C., mycelial growth
Summary of the method: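 R. solani mycelial fragments (5×10^4/ml) in half-strength Potato Dextrose Broth with compound added from acetone to 10 ppm final. Mycelial growth assessed after 10 days at 20° C, rated against untreated or diluent control.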

[11] = test system: Pyricularia oryzae; type: in vivo; settings: rice seedlings, direct therapeutic foliar spray, 600 ppm, 4-5 days

Compound | disease control rating BCB [1] | disease control rating PVA [2] | disease control rating EGT [3] | disease control rating VII [4] | disease control rating AS [5] | disease control rating PHI [6] | disease control rating LN [7] | disease control rating PIP [8] | disease control rating EGP [9] | disease control rating RSI [10] | disease control rating PO [11]
CCCCCCNC1COC2(CCC(C(C)(C)C)CC2)C1 (centres unmarked) [Compound 27] | 0 (less than 50% disease control) | 0 (less than 50% disease control) | 2 (greater than 80% disease control) | 1 (about 50-80% disease control) | 0 (less than 50% disease control) | 1 (about 50-80% disease control) | 0 (less than 50% disease control) | 0 (less than 50% disease control) | 2 (greater than 80% disease control) | 0 (less than 50% disease control) | 0 (less than 50% disease control)
CN(CC1(C)CCCCC1)C1COC2(CCC(C(C)(C)C)CC2)C1 (centres unmarked) [Compound 125] | 0 (less than 50% disease control) | 0 (less than 50% disease control) | 2 (greater than 80% disease control) | 1 (about 50-80% disease control) | 0 (less than 50% disease control) | 1 (about 50-80% disease control) | 0 (less than 50% disease control) | 0 (less than 50% disease control) | 2 (greater than 80% disease control) | 0 (less than 50% disease control) | 0 (less than 50% disease control)
CCCCCN(CC)C1COC2(CCC(C(C)(C)C)CC2)C1 (centres unmarked) [Compound 72] | 0 (less than 50% disease control) | 0 (less than 50% disease control) | 2 (greater than 80% disease control) | 1 (about 50-80% disease control) | 0 (less than 50% disease control) | 0 (less than 50% disease control) | 0 (less than 50% disease control) | 0 (less than 50% disease control) | 2 (greater than 80% disease control) | 0 (less than 50% disease control) | 0 (less than 50% disease control)
CCCCc1ccc(CNC2COC3(CCC(C(C)(C)C)CC3)C2)cc1 (centres unmarked) [Compound 26] | 0 (less than 50% disease control) | 0 (less than 50% disease control) | 2 (greater than 80% disease control) | 1 (about 50-80% disease control) | 1 (about 50-80% disease control) | 1 (about 50-80% disease control) | 0 (less than 50% disease control) | 0 (less than 50% disease control) | 2 (greater than 80% disease control) | 0 (less than 50% disease control) | 0 (less than 50% disease control)
CC(C)(C)C1CCC2(CC1)CC(NC1CCCCC1)CO2 (centres unmarked) [Compound 16] | 1 (about 50-80% disease control) | 0 (less than 50% disease control) | 2 (greater than 80% disease control) | 2 (greater than 80% disease control) | 2 (greater than 80% disease control) | 0 (less than 50% disease control) | 1 (about 50-80% disease control) | 0 (less than 50% disease control) | 2 (greater than 80% disease control) | 0 (less than 50% disease control) | 0 (less than 50% disease control)
CC(C)(C)CCNC1COC2(CCC(C(C)(C)C)CC2)C1 (centres unmarked) [Compound 111] | 1 (about 50-80% disease control) | 0 (less than 50% disease control) | 2 (greater than 80% disease control) | 1 (about 50-80% disease control) | 0 (less than 50% disease control) | 0 (less than 50% disease control) | 0 (less than 50% disease control) | 2 (greater than 80% disease control) | 2 (greater than 80% disease control) | 1 (about 50-80% disease control) | 0 (less than 50% disease control)
CC1CN(C2COC3(CCC(c4ccccc4)CC3)C2)CC(C)O1 (centres unmarked) [Compound 58] | 0 (less than 50% disease control) | 0 (less than 50% disease control) | 2 (greater than 80% disease control) | 1 (about 50-80% disease control) | 0 (less than 50% disease control) | 0 (less than 50% disease control) | 2 (greater than 80% disease control) | 0 (less than 50% disease control) | 2 (greater than 80% disease control) | 0 (less than 50% disease control) | 0 (less than 50% disease control)
CCCCCN(CCC)C1COC2(CCC(C(C)(C)C)CC2)C1 (centres unmarked) [Compound 73] | 1 (about 50-80% disease control) | 0 (less than 50% disease control) | 2 (greater than 80% disease control) | 0 (less than 50% disease control) | 0 (less than 50% disease control) | 0 (less than 50% disease control) | 0 (less than 50% disease control) | 0 (less than 50% disease control) | 2 (greater than 80% disease control) | 0 (less than 50% disease control) | 0 (less than 50% disease control)
CCCCCNC1COC2(CCC(C(C)(C)CC)CC2)C1 (centres unmarked) [Compound 49] | 0 (less than 50% disease control) | 0 (less than 50% disease control) | 2 (greater than 80% disease control) | 1 (about 50-80% disease control) | 0 (less than 50% disease control) | 2 (greater than 80% disease control) | 2 (greater than 80% disease control) | 2 (greater than 80% disease control) | 2 (greater than 80% disease control) | 1 (about 50-80% disease control) | 0 (less than 50% disease control)
CC1CCCC(NC2COC3(CCC(C(C)(C)C)CC3)C2)C1 (centres unmarked) [Compound 88] | 2 (greater than 80% disease control) | 0 (less than 50% disease control) | 2 (greater than 80% disease control) | 1 (about 50-80% disease control) | 0 (less than 50% disease control) | 0 (less than 50% disease control) | 0 (less than 50% disease control) | 2 (greater than 80% disease control) | 2 (greater than 80% disease control) | 1 (about 50-80% disease control) | 0 (less than 50% disease control)
